Data reported in patent US20100298252A1, “METHODS AND COMPOSITIONS FOR OPHTHALMIC TREATMENT OF FUNGAL AND BACTERIAL INFECTIONS” (priority 2004, published 2010).

Key:
Cladosporium sp. = test: Antifungal MIC 50 / MIC 90 alone and combined with Tricide; type: cell-based; settings: for % decrease MIC 50 / % decrease MIC 90 / MIC 50 combined with Tricide / MIC 90 combined with Tricide: Tricide 200 ug/ml; for MIC50 / MIC90: antifungal alone
[1] = system: Paecilomyces variotti ATCC 36257; test: as above; type: cell-based; settings: for MIC50 / MIC90: ATCC36257, Paecilomyces variotti ATCC 36257, antifungal alone; for MIC50: read-out: MIC 50; for MIC90: read-out: MIC 90
Fusarium sp. 3 = test: microbe, parasite or virus in culture; type: cell-based; settings: for % decrease MIC 50 / % decrease MIC 90 / MIC 50 combined with Tricide / MIC 90 combined with Tricide: Tricide 540 ug/ml; for MIC50 / MIC90: antifungal alone
Penicillium sp. = test: Antifungal MIC 50 / MIC 90 alone and combined with Tricide; type: cell-based; settings: for % decrease MIC 50 / % decrease MIC 90 / MIC 50 combined with Tricide / MIC 90 combined with Tricide: Tricide 200 ug/ml; for MIC50 / MIC90: antifungal alone
Fusarium sp. 2 = test: microbe, parasite or virus in culture; type: cell-based; settings: for MIC50 / MIC90: antifungal alone
[2] = system: Candidia albicans ATCC 90028; test: Antifungal MIC 50 / MIC 90 alone and combined with Tricide; type: cell-based, Candida albicans; settings: for MIC50 / MIC90 / % decrease MIC 50 / % decrease MIC 90 / MIC 50 combined with Tricide: Candida albicans; for MIC50 / MIC90: ATCC90028, antifungal alone; for MIC50 / MIC90 / Summary % reduction in MIC 50 using Tricide / Summary % reduction in MIC 90 using Tricide: Candidia albicans ATCC 90028; for % decrease MIC 50 / % decrease MIC 90 / MIC 50 combined with Tricide: Tricide […];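 for all read-outs here: MIC 50 and MIC 90 values are means, and the percent decrease is the drop in MIC when the antifungal is combined with Tricide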
Fusarium sp. 1 = test: microbe, parasite or virus in culture; type: cell-based; settings: for Summary % reduction in MIC 50 using Tricide / Summary % reduction in MIC 90 using Tricide: Fasarium sp. 1; for % decrease MIC 50 / % decrease MIC 90 / MIC 90 combined with Tricide / MIC50 / MIC90: Fusarium sp. 1; for % decrease MIC 50 / % decrease MIC 90 / MIC 90 combined with Tricide: Tricide 540 ug/ml; for MIC50 / MIC90: antifungal alone;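 for all read-outs here: mean MIC 50 and MIC 90 values against fungal isolates, with percent decrease in MIC when the antifungal is combined with Tricide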
Curvularia sp. = test: Antifungal MIC 50 / MIC 90 alone and combined with Tricide; type: cell-based; settings: for % decrease MIC 50 / % decrease MIC 90 / MIC 50 combined with Tricide / MIC 90 combined with Tricide: Curvilaria sp., Tricide 200 ug/ml; for Summary % reduction in MIC 50 using Tricide / Summary % reduction in MIC 90 using Tricide / MIC50 / MIC90: Curvularia sp.; for MIC50 / MIC90: antifungal alone;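 for all read-outs here: antifungal MIC 50 and MIC 90 values against fungal isolates, with percent figures expressing how much the MIC fell once Tricide was added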
Aspergillus sp. = test: as above; type: cell-based; settings: for % decrease MIC 50 / % decrease MIC 90 / MIC 50 combined with Tricide / MIC 90 combined with Tricide: Aspergillus sp., Tricide 200 ug/ml; for MIC50 / MIC90: Aspergillus, antifungal alone; for MIC50 / MIC90 / Summary % reduction in MIC 50 using Tricide / Summary % reduction in MIC 90 using Tricide: Aspergiullus sp.
[3] = Paecilomyces variotti ATCC36257
[4] = Paecilomyces variotti, Tricide […]

Clc1ccc(COC(Cn2ccnc2)c2ccc(Cl)cc2Cl)c(Cl)c1 (stereo not drawn) [Miconazole, miconazole]
Summary % reduction in MIC 50 using Tricide (Cladosporium sp.): 97% | Summary % reduction in MIC 90 using Tricide (Cladosporium sp.): 98% | % decrease MIC 50 (Cladosporium sp.): >97% | % decrease MIC 90 (Cladosporium sp.): 98% | MIC 50 combined with Tricide (Cladosporium sp.): <0.125 µg/mL | MIC 90 combined with Tricide (Cladosporium sp.): 0.25 µg/mL | MIC50 (Cladosporium sp.): 4 µg/mL | MIC90 (Cladosporium sp.): 16 µg/mL | MIC50 [1]: 0.0764 µg/mL | MIC90 [1]: > 1 µg/mL | Summary % reduction in MIC 50 using Tricide [1, 3]: 97.4% | % decrease MIC 50 [1, 4]: 97.4% | MIC 50 combined with Tricide [1, 4]: 0.002 µg/mL | MIC 90 combined with Tricide [1, 4]: >1 µg/mL | Summary % reduction in MIC 50 using Tricide (Fusarium sp. 3): 100% | Summary % reduction in MIC 90 using Tricide (Fusarium sp. 3): 100% | % decrease MIC 50 (Fusarium sp. 3): 100% | % decrease MIC 90 (Fusarium sp. 3): 100% | MIC 50 combined with Tricide (Fusarium sp. 3): 0 µg/mL | MIC 90 combined with Tricide (Fusarium sp. 3): 0 µg/mL | MIC50 (Fusarium sp. 3): > 128 µg/mL | MIC90 (Fusarium sp. 3): > 128 µg/mL | Summary % reduction in MIC 50 using Tricide (Penicillium sp.): 100% | Summary % reduction in MIC 90 using Tricide (Penicillium sp.): 100% | % decrease MIC 50 (Penicillium sp.): 100% | % decrease MIC 90 (Penicillium sp.): 100% | MIC 50 combined with Tricide (Penicillium sp.): 0 µg/mL | MIC 90 combined with Tricide (Penicillium sp.): 0 µg/mL | MIC50 (Penicillium sp.): 0.181 µg/mL | MIC90 (Penicillium sp.): 0.361 µg/mL | Summary % reduction in MIC 50 using Tricide (Fusarium sp. 2): >99.9%-100% | Summary % reduction in MIC 90 using Tricide (Fusarium sp. 2): 99.9%-100% | % decrease MIC 50 (Fusarium sp. 2; Tricide 540 ug/ml): >99.9-100% ^ | % decrease MIC 90 (Fusarium sp. 2; Tricide 540 ug/ml): 99.9-100%^ | MIC 90 combined with Tricide (Fusarium sp. 2; Tricide 540 ug/ml): 0.05 µg/mL | MIC50 (Fusarium sp. 2): > 128 µg/mL | MIC90 (Fusarium sp. 2): > 128 µg/mL | MIC50 [2]: 0.5 µg/mL | MIC90 [2]: > 1 µg/mL | % decrease MIC 50 [2]: 100% | % decrease MIC 90 [2]: 100% | MIC 50 combined with Tricide [2]: 0 µg/mL | Summary % reduction in MIC 50 using Tricide [2]: 100% | Summary % reduction in MIC 90 using Tricide [2]: 100% | Summary % reduction in MIC 50 using Tricide (Fusarium sp. 1): >99.8%-100% | Summary % reduction in MIC 90 using Tricide (Fusarium sp. 1): 99.8%-100% | % decrease MIC 50 (Fusarium sp. 1): >99.8-100% ^ | % decrease MIC 90 (Fusarium sp. 1): 99.8-100%^ | MIC 90 combined with Tricide (Fusarium sp. 1): 0 to 0.05 µg/mL | MIC50 (Fusarium sp. 1): > 128 µg/mL | MIC90 (Fusarium sp. 1): > 128 µg/mL | % decrease MIC 50 (Curvularia sp.): 99-100% ^ | % decrease MIC 90 (Curvularia sp.): 90-100% ^ | MIC 50 combined with Tricide (Curvularia sp.): 0 to 0.0250 µg/mL | MIC 90 combined with Tricide (Curvularia sp.): 0 to 0.4 µg/mL | Summary % reduction in MIC 50 using Tricide (Curvularia sp.): 99-100% ^ | Summary % reduction in MIC 90 using Tricide (Curvularia sp.): 90-100% ^ | MIC50 (Curvularia sp.): 3.11 µg/mL | MIC90 (Curvularia sp.): 4 µg/mL | % decrease MIC 50 (Aspergillus sp.): 96% | % decrease MIC 90 (Aspergillus sp.): 84% | MIC 50 combined with Tricide (Aspergillus sp.): 0.1250 µg/mL | MIC 90 combined with Tricide (Aspergillus sp.): 2 µg/mL | MIC50 (Aspergillus sp.): 3.11 µg/mL | MIC90 (Aspergillus sp.): 12.4 µg/mL | Summary % reduction in MIC 50 using Tricide (Aspergillus sp.): 96% | Summary % reduction in MIC 90 using Tricide (Aspergillus sp.): 84%

CCC(C)n1ncn(-c2ccc(N3CCN(c4ccc(OCC5COC(Cn6cncn6)(c6ccc(Cl)cc6Cl)O5)cc4)CC3)cc2)c1=O (stereo not drawn) [Itraconazole, itraconazole]
Summary % reduction in MIC 50 using Tricide (Cladosporium sp.): 93.8% | Summary % reduction in MIC 90 using Tricide (Cladosporium sp.): 96.9% | % decrease MIC 50 (Cladosporium sp.): >93.8% ^ | % decrease MIC 90 (Cladosporium sp.): 96.9% | MIC 50 combined with Tricide (Cladosporium sp.): <0.25 µg/mL | MIC 90 combined with Tricide (Cladosporium sp.): 0.5 µg/mL | MIC50 (Cladosporium sp.): 4 µg/mL | MIC90 (Cladosporium sp.): 16 µg/mL | MIC50 [1]: 0.0764 µg/mL | MIC90 [1]: 0.5 µg/mL | Summary % reduction in MIC 50 using Tricide [1, 3]: 95% | Summary % reduction in MIC 90 using Tricide [1, 3]: 50% | % decrease MIC 50 [1, 4]: 95% | % decrease MIC 90 [1, 4]: 50% | MIC 50 combined with Tricide [1, 4]: 0.0039 µg/mL | MIC 90 combined with Tricide [1, 4]: 0.25 µg/mL | Summary % reduction in MIC 50 using Tricide (Fusarium sp. 3): 100% | Summary % reduction in MIC 90 using Tricide (Fusarium sp. 3): 100% | % decrease MIC 50 (Fusarium sp. 3): 100% | % decrease MIC 90 (Fusarium sp. 3): 100% | MIC 50 combined with Tricide (Fusarium sp. 3): 0 µg/mL | MIC 90 combined with Tricide (Fusarium sp. 3): 0 µg/mL | MIC50 (Fusarium sp. 3): > 128 µg/mL | MIC90 (Fusarium sp. 3): > 128 µg/mL | Summary % reduction in MIC 50 using Tricide (Penicillium sp.): 100% | Summary % reduction in MIC 90 using Tricide (Penicillium sp.): 100% | % decrease MIC 50 (Penicillium sp.): 100% | % decrease MIC 90 (Penicillium sp.): 100% | MIC 50 combined with Tricide (Penicillium sp.): 0 µg/mL | MIC 90 combined with Tricide (Penicillium sp.): 0 µg/mL | MIC50 (Penicillium sp.): 0.5 µg/mL | MIC90 (Penicillium sp.): 0.722 µg/mL | Summary % reduction in MIC 50 using Tricide (Fusarium sp. 2): >99.9%-100% | Summary % reduction in MIC 90 using Tricide (Fusarium sp. 2): >99.9%-100% | % decrease MIC 50 (Fusarium sp. 2; Tricide 540 ug/ml): >99.9-100% ^ | % decrease MIC 90 (Fusarium sp. 2; Tricide 540 ug/ml): >99.9-100% ^ | MIC50 (Fusarium sp. 2): > 128 µg/mL | MIC90 (Fusarium sp. 2): > 128 µg/mL | MIC50 [2]: 0.201 µg/mL | MIC90 [2]: > 1 µg/mL | % decrease MIC 50 [2]: 100% | % decrease MIC 90 [2]: 100% | MIC 50 combined with Tricide [2]: 0 µg/mL | Summary % reduction in MIC 50 using Tricide [2]: 100% | Summary % reduction in MIC 90 using Tricide [2]: 100% | Summary % reduction in MIC 50 using Tricide (Fusarium sp. 1): >99.9%-100% | Summary % reduction in MIC 90 using Tricide (Fusarium sp. 1): 99.9%-100% | % decrease MIC 50 (Fusarium sp. 1): >99.9-100% ^ | % decrease MIC 90 (Fusarium sp. 1): 99.9-100%^ | MIC 90 combined with Tricide (Fusarium sp. 1): 0 to 0.05 µg/mL | MIC50 (Fusarium sp. 1): > 128 µg/mL | MIC90 (Fusarium sp. 1): > 128 µg/mL | % decrease MIC 50 (Curvularia sp.): 97-100% ^ | % decrease MIC 90 (Curvularia sp.): 80-100% ^ | MIC 50 combined with Tricide (Curvularia sp.): 0 to 0.0250 µg/mL | MIC 90 combined with Tricide (Curvularia sp.): 0 to 0.4 µg/mL | Summary % reduction in MIC 50 using Tricide (Curvularia sp.): 97%-100% | Summary % reduction in MIC 90 using Tricide (Curvularia sp.): 80%-100% | MIC50 (Curvularia sp.): 0.778 µg/mL | MIC90 (Curvularia sp.): 2 µg/mL | % decrease MIC 50 (Aspergillus sp.): 84% | % decrease MIC 90 (Aspergillus sp.): 90% | MIC 50 combined with Tricide (Aspergillus sp.): 0.1250 µg/mL | MIC 90 combined with Tricide (Aspergillus sp.): 0.25 µg/mL | MIC50 (Aspergillus sp.): 0.786 µg/mL | MIC90 (Aspergillus sp.): 2.43 µg/mL | Summary % reduction in MIC 50 using Tricide (Aspergillus sp.): 84% | Summary % reduction in MIC 90 using Tricide (Aspergillus sp.): 90%
